Assay results published in patent US20070298994A1, “Use of 3-Mercapto-3-Methyl-Hexan-1-Ol for Use as Malodour Standard” (SYMRISE GMBH & CO. KG, priority 2004, published 2007).

test: Raw material test against sweat odour (masking of malodour standard, assessor panel); conditions: Table 1; 1 μl fragrance + 5 μl 3-mercapto-3-methyl-hexan-1-ol (0.1% in DPG) in 7 l air, 15 h at approx. 20° C.; scale 1 to 9, malodour standard mixture = 6; mean of at least 8 assessors

SMILES | Increase In intensity | Odour reduction value
CCCCCC1COCCC1OC(C)=O (stereo not drawn) [TETRAHYDRO-3-PENTYL-PYRAN-4-OL ACETATE] | 1.5 | 4.5
CC1COCc2cc3c(cc21)C(C)(C)C(C)C3(C)C (stereo not drawn) | −2.3 | 4.3
CC(C)=CCCC(C)=CCCC(C)C=O (stereo not drawn) | 0.2 | 3.8
CC(=O)C(C)=CC1C(C)=CCCC1(C)C (stereo not drawn) | −0.7 | 5.1
CC(C)=CCC(C)(C)C1OCC=CCO1 | 0.0 | 3.7
CCCCCC1CCC(=O)O1 (stereo not drawn) [5-PENTYLDIHYDROFURAN-2-ONE] | −0.8 | 4.1
CCCCCCCC1CCCC1=O (stereo not drawn) [2-HEPTYL-CYCLOPENTANONE] | 1.3 | 4.5
CC(=O)OC(C)c1ccccc1 (stereo not drawn) [ACETIC ACID-1-PHENYLETHYL ESTER] | −0.4 | 4.0
CC(C)c1ccc(CC=O)cc1 [4-(1-METHYLETHYL)-PHENYL ACETALDEHYDE] | 1.7 | 3.8
CCCCCCC1OC(=O)CC1C (mixture of isomers) [(E/Z) 5-HEXYLDIHYDRO-4-METHYL-2-FURANONE] | 1.2 | 4.2
CCOC(=O)C1=C(C)C=CCC1(C)C [2,6,6-TRIMETHYL-1,3-CYCLOHEXADIENE CARBOXYLIC ACID ETHYL ESTER] | −2.8 | 3.0
COC1(OC)CCCCCCCCCCC1 [CYCLODODECANONE DIMETHYL KETAL] | 1.5 | 4.0
C/C(=C\C#N)CCc1ccccc1 [(E)-3-METHYL-5-PHENYL-2-PENTENE NITRILE] | 1.2 | 5.1
CC(C)COC(=O)C=Cc1ccccc1 [ISOBUTYL CINNAMATE] | 0.8 | 3.1
CCCCCCCCCCCC#N [UNDECYL CYANIDE] | 1.6 | 3.3
CC(CO)CCCc1ccccc1 (stereo not drawn) [2-METHYL-5-PHENYL PENTANOL] | −0.5 | 5.1
CCCC(=O)C(CC)Cc1ccccc1 (stereo not drawn) | 0.1 | 4.6
C/C=C/C(=O)C1CCC(C)(C)C=C1C (stereo not drawn) | 1.0 | 5.0

same assay, conditions: Table 2 (raw materials without adequate malodour-reducing action); 1 μl fragrance + 5 μl 3-mercapto-3-methyl-hexan-1-ol (0.1% in DPG) in 7 l air, 15 h; scale 1 to 9, standard = 6

SMILES | Increase in intensity | Malodour reduction value
CCCCCCCCCCCC=O [DODECANAL, reference compound] | 2.0 | 2.0
COc1cc(C=O)ccc1O [VANILLIN, reference compound] | 1.0 | 0.0
OCCCc1ccccc1 [PHENYL PROPYL ALCOHOL, reference compound] | 1.0 | 0.0
CCCCCC1COCCC1OC(C)=O (stereo not drawn) [TETRAHYDRO-3-PENTYL-PYRAN-4-OL ACETATE] | 1.0 | 2.0
CC(=O)OCc1ccccc1 [BENZYL ACETATE, reference compound] | 0.4 | 2.5
CC(=O)O[C@@H]1C[C@H]2CC[C@]1(C)C2(C)C (racemic) [ACETIC ACID ISOBORNYL ESTER, reference compound] | −0.5 | 2.3
OCc1ccccc1 [BENZYL ALCOHOL, reference compound] | 2.0 | −2.0
CC(C)=CCCC(C)CCO (stereo not drawn) [CITRONELLOL, reference compound] | −0.2 | 2.2

same assay, conditions: Table 3 (adequate malodour-reducing action but significant increase in intensity); 1 μl fragrance + 5 μl 3-mercapto-3-methyl-hexan-1-ol (0.1% in DPG) in 7 l air, 15 h; scale 1 to 9, standard = 6

SMILES | Increase in intensity | Malodour-reduction value
CCC(C)CCCC(C)(C)O (stereo not drawn) [TETRAHYDROMYRCENOL, reference compound] | 2.2 | 4.0
CC(=O)/C(C)=C/C1C(C)=CCCC1(C)C (stereo not drawn) [GAMMA-METHYLICONE, reference compound] | 2.1 | 4.0
CC12CCC(CC1)C(C)(C)O2 [1,8-CINEOL, reference compound] | 2.4 | 5.1
CCC(C)(O)CCCC(C)C (stereo not drawn) [TETRAHYDROLINALOOL, reference compound] | 2.3 | 3.0
CCCCCOC(=O)c1ccccc1O [AMYL SALICYLATE, reference compound] | 2.4 | 3.6
CC(=O)OC1CC(C)CCC1C(C)C (stereo not drawn) [MENTHYL ACETATE, reference compound] | 2.9 | 4.4
CC(C)=CCCC(C)=CC#N [GERANYL NITRILE, 3,7-dimethyl-2,6-octadiene-1-nitrile, reference compound] | 3.0 | 5.0

same assay, conditions: Table 4, tests with the mixtures (Example 2), according to the raw material test method

SMILES | Increase in intensity | Malodour reduction value
CCOC(=O)c1ccccc1C(=O)OCC [DEP, diethyl phthalate, reference compound] | −0.1 | 0.0

same assay, conditions: prior-art fragrances examined by the applicant

SMILES | intrinsic odour / perfumistic impression (in words) | reduction in the bad odour based on 3-mercapto-3-methyl-hexan-1-ol (in words)
CC(C)=CCCC(C)=CC#N [GERANYL NITRILE, 3,7-dimethyl-2,6-octadiene-1-nitrile, reference compound] | strong intrinsic odour | does show a reduction in the bad odour

same assay, conditions: solvents

SMILES | effect on the intensity of the bad odour | effect on the total intensity
CCOC(=O)c1ccccc1C(=O)OCC [DEP, diethyl phthalate, reference compound] | no effect | no effect
